Experimental data: patent publication US9115341B2, “Method for expanding hematopoietic stem cells using heterocyclic compound” (Nissan Chemical Industries, Ltd., priority 2007, dated 2015)

These molecules were tested on human cord blood-derived CD34+ cells (assay: Expansion of CD34+ cells from human cord blood-derived CD34+ cells). Settings: 168 h, 0.3 μg/mL compound, number of CD34+ cells relative to absence of compound, 7 days, StemSpan SFEM with 100 ng/mL SCF, read-out: Expansion efficiency.
Format: cell-based
Description: Commercially available human cord blood-derived CD34^+ cells (Cambrex Bio Science Walkersville) were plated on a 12-well plate (Corning) (from 5000 to 10000 cells/1 ml/well). As the culture medium, StemSpan SFEM (Stemcell Technologies) containing 100 ng/mL SCF (R&D Systems) was used, and Compounds Nos. 1 to 37 dissolved in dimethyl sulfoxide were added in an amount of 0.1% (v/v) to a final concentration of 0.3 or 1 μg/mL.
After the cells were incubated in liquid culture at 37° C. for 7 days in a CO2 incubator (in an atmosphere containing 5 vol % CO2), the total number of cells was counted by trypan blue assay (Invitrogen) or Flow-Count™ fluorosphere assay (Beckman Coulter). The number of CD34^+ cells was calculated as follows. After the incubation, the cells in the liquid culture was stained with a CD34 antibody (PE, Becton, Dickinson and Company). The stained cells were analyzed with a flow cytometer (Beckman Coulter) to determined the proportion of CD34^+ cells, which was multiplied by the total number of cells to calculate the number of CD34^+ cells.
The expansion efficiencies in the presence of 0.3 μg/mL or 1 μg/mL of compounds based on the number of CD34^+ cells in the absence of them are shown in Table 2 on a scale of A for expansion efficiencies of 3 or greater, and B for expansion efficiencies of at least 2 and less than 3.

| SMILES | fold induction at 0.3 µg/mL |
| --- | --- |
| C/C(=N\NC(=O)c1ccc(C(=O)NCCc2ccccn2)s1)c1csc(-c2ccc(Cl)c(Cl)c2)c1O [Compound 27] | 2 to 3 |
| C/C(=N\NC(=O)c1ccc(C(=O)NCCc2cccnc2)s1)c1csc(-c2ccc(Cl)c(Cl)c2)c1O [Compound 29] | ≥ 3 |
| C/C(=N\NC(=O)c1ccc(C(=O)NCCc2ccncc2)s1)c1csc(-c2ccc(OC(F)(F)F)cc2)c1O [Compound 30] | ≥ 3 |
| C/C(=N\NC(=O)c1ccc(C(=O)NCCc2ccncc2)s1)c1csc(-c2ccc(C(F)(F)F)cc2)c1O [Compound 31] | ≥ 3 |
| C/C(=N\NC(=O)c1ccc(C(=O)NCCc2cccnc2)s1)c1csc(-c2ccc(OC(F)(F)F)cc2)c1O [Compound 32] | ≥ 3 |
| C/C(=N\NC(=O)c1ccc(C(=O)NCCc2cccnc2)s1)c1csc(-c2ccc(C(F)(F)F)cc2)c1O [Compound 33] | ≥ 3 |

Same assay, conditions: 168 h, 1 μg/mL compound, number of CD34+ cells relative to absence of compound, 7 days, StemSpan SFEM with 100 ng/mL SCF, read-out: Expansion efficiency

| SMILES | fold induction at 1 µg/mL |
| --- | --- |
| C/C(=N\NC(=S)Nc1ccc(C(=O)O)cc1)c1nn(C)c(-c2ccc(C(F)(F)F)cc2)c1O [Compound 1] | ≥ 3 |
| C/C(=N\NC(=O)c1ccc(C(=O)O)cc1)c1csc(-c2ccc(Cl)c(Cl)c2)c1O [Compound 2] | 2 to 3 |
| C/C(=N\NC(=S)Nc1ccc(C(=O)O)cc1)c1csc(-c2ccc(C(F)(F)F)cc2)c1O [Compound 3] | ≥ 3 |
| C/C(=N\NC(=O)c1ccc(C(=O)O)c([NH2+][O-])c1)c1csc(-c2ccc(C(C)(C)C)cc2)c1O [Compound 4] | ≥ 3 |
| C/C(=N\NC(=O)c1ccc(C(=O)O)c([NH2+][O-])c1)c1csc(-c2ccc(Cl)c(Cl)c2)c1O [Compound 5] | 2 to 3 |
| C/C(=N\NC(=O)c1ccc(C(=O)O)s1)c1csc(-c2ccc(Cl)c(Cl)c2)c1O [Compound 6] | 2 to 3 |
| C/C(=N\NC(=O)c1ccc(C(=O)O)s1)c1csc(-c2ccc(C(F)(F)F)cc2)c1O [Compound 7] | ≥ 3 |
| C/C(=N\NC(=O)c1ccc(C(=O)O)c([NH2+][O-])c1)c1csc(-c2ccc(C(F)(F)F)cc2)c1O [Compound 8] | ≥ 3 |
| C/C(=N\NC(=S)Nc1ccc(C(=O)O)c([N+](=O)[O-])c1)c1csc(-c2ccc(C(C)(C)C)cc2)c1O [Compound 10] | ≥ 3 |
| C/C(=N\NC(=S)Nc1ccc(C(=O)O)c([N+](=O)[O-])c1)c1csc(-c2ccc(Cl)c(Cl)c2)c1O [Compound 11] | ≥ 3 |
| C/C(=N\NC(=S)Nc1ccc(C(=O)O)c([N+](=O)[O-])c1)c1csc(-c2ccc(C(F)(F)F)cc2)c1O [Compound 12] | ≥ 3 |
| C/C(=N\NC(=S)Nc1ccc(C(=O)O)c(Cl)c1)c1nn(C)c(-c2ccc(C(F)(F)F)cc2)c1O [Compound 13] | ≥ 3 |
| C/C(=N\NC(=S)Nc1ccc(C(=O)O)c(Cl)c1)c1csc(-c2ccc(Cl)c(Cl)c2)c1O [Compound 14] | ≥ 3 |
| C/C(=N\NC(=O)c1ccc(C(=O)N2CCCC2)s1)c1csc(-c2ccc(C(F)(F)F)cc2)c1O [Compound 15] | ≥ 3 |
| C/C(=N\NC(=S)Nc1cccc(C(=O)O)c1)c1csc(-c2ccc(Cl)c(Cl)c2)c1O [Compound 16] | 2 to 3 |
| C/C(=N\NC(=S)Nc1cccc(C(=O)O)c1)c1nn(C)c(-c2ccc(C(F)(F)F)cc2)c1O [Compound 18] | ≥ 3 |
| C/C(=N\NC(=O)c1ccc(C(=O)NCCO)s1)c1csc(-c2ccc(C(F)(F)F)cc2)c1O [Compound 19] | ≥ 3 |
| C/C(=N\NC(=S)Nc1cccc(C(=O)O)c1)c1csc(-c2ccc(C(C)(C)C)cc2)c1O [Compound 20] | ≥ 3 |
| C/C(=N\NC(=S)Nc1cccc(C(=O)O)c1)c1csc(-c2ccc(C)c(C)c2)c1O [Compound 21] | ≥ 3 |
| C/C(=N\NC(=S)Nc1ccc(C(=O)O)cc1)c1csc(-c2ccc(C)c(C)c2)c1O [Compound 22] | ≥ 3 |
| C/C(=N\NC(=S)Nc1ccc(S(N)(=O)=O)cc1)c1nn(C)c(-c2ccc(Cl)c(Cl)c2)c1O [Compound 23] | 2 to 3 |
| C/C(=N\NC(=O)c1ccc(C(=O)O)cc1N)c1nn(C)c(-c2ccc(C(F)(F)F)cc2)c1O [Compound 24] | ≥ 3 |
| C/C(=N\NC(=O)c1ccc(C(=O)NCC(=O)O)s1)c1csc(-c2ccc(OC(F)(F)F)cc2)c1O [Compound 25] | ≥ 3 |
| C/C(=N\NC(=O)c1ccc(C(=O)NC(C)C)s1)c1nn(C)c(-c2ccc(Cl)c(Cl)c2)c1O [Compound 26] | ≥ 3 |
| C/C(=N\NC(=O)c1ccc(C(=O)NCCc2ccncc2)s1)c1csc(-c2ccc(Cl)c(Cl)c2)c1O [Compound 28] | ≥ 3 |
| C/C(=N\NC(=O)c1ccc(C(=O)NCCCc2ccncc2)s1)c1csc(-c2ccc(Cl)c(Cl)c2)c1O [Compound 34] | ≥ 3 |
| C/C(=N\NC(=O)c1ccc(C(=O)NCCc2ccnn2C)s1)c1csc(-c2ccc(Cl)c(Cl)c2)c1O [Compound 35] | ≥ 3 |
| C/C(=N\NC(=O)c1ccc(C(=O)NCCCc2ccncc2)s1)c1csc(-c2ccc(C(F)(F)F)cc2)c1O [Compound 36] | ≥ 3 |
| C/C(=N\NC(=O)c1ccc(C(=O)NCc2cc(C)n(C)n2)s1)c1nn(C)c(-c2ccc(C(F)(F)F)cc2)c1O [Compound 37] | ≥ 3 |
